A word on the IC50: it is the concentration that gives 50% inhibition.

From ChEMBL document CHEMBL5728673, “Substituted imidazopyridine compounds as inhibitors of indoleamine 2,3-dioxygenase and/or tryptophan-2,3-dioxygenase” (2021) come the findings set out here.

For assay [1], the target named is Indoleamine 2,3-dioxygenase 1 (Homo sapiens, UniProt P14902). In words: (§1) Biochemical Coupled Assay: Recombinant human IDO or TDO was incubated in 50 mM KPO4 (pH 7.0), 0.5 mM EGTA, 0.5 mM EDTA, 0.05% Triton™ X100, 20 mM ascorbate, 10 μM methylene blue, 500 U/ml catalase, 50 μg/ml KynB (kynurenine formamidase). TDO assays were carried out in the presence of 330 μM L-tryptophan, while IDO assays had the addition of 45 μM L-tryptophan. After incubation for 17 minutes at room temperature the reactions were stopped by the addition of Erhlich's reagent and incubated at room temperature for 5 minutes before the fluorescence was read.

The target in assay [2] is Tryptophan 2,3-dioxygenase (Homo sapiens, UniProt P48775). The description is as §1.

The structures appear in SMILES notation.

Indoleamine 2,3-dioxygenase 1, sequence (P14902 whole entry): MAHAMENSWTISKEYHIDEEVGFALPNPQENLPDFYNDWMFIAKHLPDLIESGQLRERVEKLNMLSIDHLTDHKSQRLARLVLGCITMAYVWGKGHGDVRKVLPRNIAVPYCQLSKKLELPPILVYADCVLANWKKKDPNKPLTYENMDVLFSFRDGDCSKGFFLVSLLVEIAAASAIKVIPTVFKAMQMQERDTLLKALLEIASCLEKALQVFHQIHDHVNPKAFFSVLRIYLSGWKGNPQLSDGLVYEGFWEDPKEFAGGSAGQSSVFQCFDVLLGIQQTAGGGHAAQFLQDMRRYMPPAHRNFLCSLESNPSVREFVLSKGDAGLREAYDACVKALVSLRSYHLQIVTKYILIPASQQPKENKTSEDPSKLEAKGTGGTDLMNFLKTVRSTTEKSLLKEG
Tryptophan 2,3-dioxygenase, sequence (P48775 whole entry): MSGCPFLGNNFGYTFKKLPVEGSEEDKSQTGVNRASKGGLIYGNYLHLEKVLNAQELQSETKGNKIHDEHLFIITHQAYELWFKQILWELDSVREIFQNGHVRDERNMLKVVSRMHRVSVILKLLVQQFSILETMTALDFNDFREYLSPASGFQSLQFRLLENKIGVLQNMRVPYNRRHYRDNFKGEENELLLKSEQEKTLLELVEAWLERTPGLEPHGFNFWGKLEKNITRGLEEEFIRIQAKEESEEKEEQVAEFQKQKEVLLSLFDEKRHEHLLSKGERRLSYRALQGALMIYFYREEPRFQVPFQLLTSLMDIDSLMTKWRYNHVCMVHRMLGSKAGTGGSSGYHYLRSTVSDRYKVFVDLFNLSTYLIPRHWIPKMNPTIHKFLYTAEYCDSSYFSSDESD

As for `CC1(C)CN(c2cc(Cl)cc3cncn23)CCC12NC(=O)NC2=O` (configuration not stated), the IC50 was determined as 0.148 µM in assay [1] and 1.59 µM in assay [2].
